Common to all, as to format: biochemical
The subject of assay [1] is Suc-AAPF-pNA. Briefly: Hydrolysis of paranitroanilide-derivatized substrate Suc-AAPF-pNA. To be noted: substrate 200 μM; enzyme 1 μg/ml (NattoK: dilution series); 50 mM TrisHCl pH 8.0, 37° C. The method, then: (§1) FIG. 4A and FIG. 4B are representative graphs of the hydrolysis of the substrates: Suc-AAPF-pNA (SEQ ID NO: 4), Z-YPQ-pNA, and Z-LPY-pNA, each at 200 μM, by Rmep and subtilisin A, respectively, each at 1 μg/ml.
FIG. 8C show a representative graph of the hydrolysis of the substrate, Suc-AAPF-pNA (SEQ ID NO: 4), with a dilution series of NattoK. Suc-AAPF-pNA (SEQ ID NO: 4) was incubated […]. Hydrolysis was measured at 405 nm.
(§2) Hydrolysis of paranitroanilide-derivatized substrates—Paranitroanilide (pNA)-derivatized tripeptide substrates were chemically synthesized at >90% purity (21st Century Biochemicals, Marlborough, Mass.). The substrates obtained were Z-YPQ-pNA, Z-QQP-pNA, Z-LPY-pNA, Z-PFP-pNA, Z-PPF-pNA, where Z=benzyloxycarbonyl, Y=tyrosine, P=proline, Q=glutamine, L=leucine, and F=phenylalanine Suc-AAPF-pNA (SEQ ID NO: 4) was obtained from Sigma, where Suc=N-succinyl and A=alanine. The peptides were dissolved in 75-100% DMSO at 10 mM, and were used at a final concentration of 200 μM in 50 mM TrisHCl pH 8.0. Purified Rothia enzyme or subtilisin A from Bacillus licheniformis (Sigma) were tested at final concentrations of 1 μg/ml. Some experiments were conducted in the presence of inhibitors 4-(2-Aminoethyl) benzenesulfonyl fluoride (AEBSF), Aprotinin, E-64, EDTA, phenylmethanesulfonyl fluoride (PMSF) and Eglin C, which were tested at final concentrations of 10 mM, 0.08 mM, 0.1 mM, 1.5 mM, 1 mM, and 0.06-1.2 μM, respectively. Enzymes were preincubated with the inhibitors for 20 min before adding Suc-AAPF-pNA (SEQ ID NO: 4). Substrate hydrolysis was monitored for 10 h at 405 nm using a Genios microtiter plate reader (Tecan, Männedorf, Switzerland) in the kinetic mode at 37° C.

For assay [2], the system named is Z-LPY-pNA. Description: Hydrolysis of paranitroanilide-derivatized substrate Z-LPY-pNA. Conditions: five-fold increased enzyme concentrations (5 μg/ml) and longer incubation times. The procedure: as §1
FIG. 4C show a representative graph of the hydrolysis of the substrate, LPY, by Rmep and subtilisin A at 5 μg/ml and extended incubation times.
as §2, with “Some experiments were conducted in the presence of inhibitors 4-(2-Aminoethyl) benzenesulfonyl fluoride (AEBSF), Aprotinin, E-64, EDTA, phenylmethanesulfonyl fluoride (PMSF) and Eglin C, which were tested at final concentrations of 10 mM, 0.08 mM, 0.1 mM, 1.5 mM, 1 mM, and 0.06-1.2 μM, respectively. Enzymes were preincubated with the inhibitors for 20 min before adding Suc-AAPF-pNA (SEQ ID NO: 4).” left out

Assay [3] concerns Z-PFP-pNA. Briefly: Hydrolysis of paranitroanilide-derivatized substrate Z-PFP-pNA. To be noted: substrate 200 μM, pH 8.0 (data not shown). The method, then:
as §2

The subject of assay [4] is FRET substrate PQPQPQ. Briefly: FRET substrate hydrolysis, PQPQPQ. Conditions: substrate 100 μM, Rmep 1 μg/ml, subtilisin A 0.5 μg/ml, pH 8.0. The method, then:
(§3) FIG. 4D and FIG. 4E are representative graphs of the hydrolysis of gliadin-derived FRET substrates. FRET substrates containing QPQLPY (SEQ ID NO: 22), PQPQPQ (SEQ ID NO: 23) and QGSFQP (SEQ ID NO: 24), each at 100 μM, were incubated with Rmep […] and subtilisin A (FIG. 4E), at 1 μg/ml and 0.5 μg/ml, respectively. Controls were boiled Rmep and subtilisin A incubated with PQPQLPY (+) (SEQ ID NO: 25), PQPQPQ (⋄) (SEQ ID NO: 23) and QGSFQP (*) (SEQ ID NO: 24) (no activity, baseline).
(§4) FRET substrate hydrolysis—Three fluorescence resonance energy transfer (FRET) substrates comprising the hexapeptides QPQLPY (SEQ ID NO: 22), PQPQPQ (SEQ ID NO: 23) and QGSFQP (SEQ ID NO: 24) were synthesized with at the N-terminus the HILYTE FLUOR™ 488 label, and at the C-terminus with K(QXL520) (Anaspec, Fremont, Calif.). Rmep (1 μg/ml) and subtilisin A (0.5 μg/ml) were incubated with the substrates (100 μM) in 50 mM TrisHCl pH 8.0. Samples were incubated at 37° C. and fluorescence increase, indicating hydrolysis, was measured every 5 min for 30 min, and every 10 min for the next 30 min, at λex 485 nm and λem 520 nm, using a Genios microtiter plate reader in the kinetic mode.

Assay [5] relates to gliadin-derived FRET substrate QGSFQP. Description: FRET substrate hydrolysis, QGSFQP. Conditions: substrate 100 μM, Rmep 1 μg/ml, pH 8.0. The method, then:
as §3, §4

Assay [6] relates to R5 epitopes (QQPFP and related pentapeptides) in mixed gliadins. Briefly: R5 ELISA, gluten epitope elimination in gliadin digests. To be noted: gliadins 250 μg/ml, enzyme 57 μg/ml. The method, then:
FIG. 8E and FIG. 8F show the assessment of the survival of epitopes in the gliadin-NattoK degradation mixture employing the R5 ELISA (FIG. 8E) or G12 ELISA (FIG. 8F) assays. Epitope abolishment in Mixed gliadins (250 μg/ml) were incubated with NattoK (57 μg/ml) for 0, 15, 30 and 120 min and then assayed by the R5 ELISA or G12 ELISA.
R5 and G12 ELISA assays—Gluten epitope elimination in the gliadin-Rmep and gliadin-subtilisin A digests was assessed using two sandwich ELISA assays employing the R5 monoclonal antibody (RIDASCREEN Gliadin, R-Biopharm, Darmstadt, Germany) or the G12 monoclonal antibody (AgraQuant® ELISA Gluten G12, Romer labs, Union, Mo.). To prevent high background values, the R5 plate wells were blocked with 1% skim milk in PBS prior to incubation with the samples. The assays were performed according to the manufacturers' instructions and as described (21, 24).
To further investigate this, the time courses of degradation of mixed gliadins and the highly immunogenic 33-mer α-gliadin peptide were determined. Furthermore, epitope elimination was monitored by two ELISA assays employing the R5 antibody recognizing QQPFP (SEQ ID NO: 40) and related pentapeptides (27, 28) and the G12 antibody recognizing QPQLPY (SEQ ID NO: 22) contained in the 33-mer peptide (29, 30). Data obtained with Rmep are shown in FIG. 5, and with subtilisin A in FIG. 6.
For orientation: An ELISA detects its analyte on a solid surface through an enzyme-linked reagent.

2 molecules from patent US11124785B2, “Rothia subtilisins, S8A family proteases, as therapeutic enzymes for application in gluten intolerance disorders” (TRUSTEES OF BOSTON UNIVERSITY, priority 2016, dated 2021) can be followed below.

Consider “Rmep: DEAE pooled fraction F2 of R. mucilaginosa ATCC 25296 extract with highest gluten-degrading enzyme activity; contains subtilisins C6R5V9_9MICC and C6R5W1_9MICC”, for which the “hydrolysis of Suc-AAPF-pNA” value in assay [1] is given as “cleaved most rapidly”. The “hydrolysis of Z-LPY-pNA” value in assay [2] is “could be demonstrated”. Also, the “hydrolysis of Z-PFP-pNA” value in assay [3] is recorded as “not hydrolyzed”. Also, the “hydrolysis of FRET substrate PQPQPQ” value in assay [4] is reported as “rapidly hydrolyzed”. In addition, the “hydrolysis of FRET substrate QGSFQP” value in assay [5] is recorded as “not cleaved”. Also, the “R5 epitopes eliminated after 15 min” value in assay [6] (15 min) is “virtually all”. Further, the “R5 epitope elimination (reduction in antibody binding) at t=0” value in assay [6] is 46%.

B1: subtilisin A: subtilisin A from Bacillus licheniformis (Sigma) (protein, listed as Bacillus licheniformis)
chain: MMRKKSFWLGMLTAFMLVFTMAFSDSASAAQPAKNVEKDYIVGFKSGVKTASVKKDIIKESGGKVDKQFRIINAAKAKLDKEALKEVKNDPDVAYVEEDHVAHALAQTVPYGIPLIKADKVQAQGFKGANVKVAVLDTGIQASHPDLNVVGGASFVAGEAYNTDGNGHGTHVAGTVAALDNTTGVLGVAPSVSLYAVKVLNSSGSGTYSGIVSGIEWATTNGMDVINMSLGGPSGSTAMKQAVDNAYARGVVVVAAAGNSGSSGNTNTIGYPAKYDSVIAVGAVDSNSNRASFSSVGAELEVMAPGAGVYSTYPTSTYATLNGTSMASPHVAGAAALILSKHPNLSASQVRNRLSSTATYLGSSFYYGKGLINVEAAAQ
As to B1, in assay [1], the “hydrolysis of Suc-AAPF-pNA” value is “cleaved most rapidly”. Moreover, the “hydrolysis of Z-LPY-pNA” value in assay [2] is “could be demonstrated”. For the same molecule, in assay [3], the “hydrolysis of Z-PFP-pNA” value is reported as “not hydrolyzed”. Also, the “hydrolysis of FRET substrate PQPQPQ” value in assay [4] was “highest activity”. For the same molecule, the “R5 epitope elimination within 15 min of incubation” value in assay [6] (15 min) is reported as 100%. Further, in assay [6], the “R5 epitope elimination (reduction in antibody binding) at t=0” value stood at 90%.
